Our source for the IC50 values is patent publication US11071730B2, “Substituted 6-azabenzimidazole compounds” (Gilead Sciences, Inc., priority 2018, dated 2021).

Each structure is given as a SMILES string.

One may read the IC50 as the concentration that gives 50% inhibition.

The target in the first assay is human HPK1 (MAP4K1) (Homo sapiens (Human), UniProt Q92918). As to the kind of experiment: HPK1 IC50 Assay (TR-FRET biochemical kinase assay, STK S1 peptide substrate). Particulars: recombinant human HPK1 kinase domain 0.15 nM, 10 μM ATP, 1 μM STK S1 peptide; geometric mean. Here is the method: The enzymatic activity of human HPK1 (MAP4K1) was monitored in a biochemical assay in the presence or absence of compounds and using a synthetic peptide substrate. An increase in phosphorylation of the peptide by HPK1 was indicative of its kinase activity.
Chain of human HPK1 (MAP4K1) (Q92918 17-274): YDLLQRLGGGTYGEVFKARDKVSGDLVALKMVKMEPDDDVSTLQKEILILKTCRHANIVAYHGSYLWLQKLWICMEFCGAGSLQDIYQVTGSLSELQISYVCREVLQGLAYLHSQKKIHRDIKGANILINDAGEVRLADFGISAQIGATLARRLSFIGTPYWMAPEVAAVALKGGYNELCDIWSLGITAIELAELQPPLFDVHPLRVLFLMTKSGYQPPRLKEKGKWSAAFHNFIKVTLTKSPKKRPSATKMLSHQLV
Recombinant HPK1 kinase domain produced via baculovirus infection of insect cells was obtained from Proteros (Proteros Biostructures #PR-0322) and was pre-activated in the presence of 2 mM ATP (Sigma-Aldrich, cat #GE27-2056-01) and 2 mM magnesium chloride for 16 hours at 4° C. The protein reaction mixture was then loaded to a desalting column (Thermo Fisher Scientific, Cat #89889) to remove excess ATP. HPK1 was eluted with buffer containing 20 mM Tris (2-Amino-2-(hydroxymethyl)propane-1,3-diol) pH 8.0, 150 mM NaCl, 2 mM dithiothreitol and 5% glycerol, and was frozen at −80° C. for later use.
Ten nanoliters of test compounds dissolved in DMSO at various concentrations were dispensed into a 384-well ProxiPlate (PerkinElmer #6008289). Five microliters of a solution of recombinant HPK1 diluted in HPK1 kinase assay buffer (50 mM BES [N,N-Bis(2-hydroxyethyl)-2-aminoethanesulfonic acid], pH 7.0; 10 mM magnesium chloride; 0.01% Triton X-100; 1 mM dithiothreitol; 0.01% bovine serum albumin; 0.1 mM sodium orthovanadate) was added to the compound-containing plate and was incubated for 15 minutes at 25° C. Five microliters of a mixture of ATP (Sigma-Aldrich #A6559) and peptide substrate STK S1 (Cisbio #61ST1BLC) diluted in HPK1 kinase assay buffer was then added to start the reaction. Final concentrations were 0.15 nM for HPK1, 10 μM for ATP, and 1 μM for the STK S1 peptide substrate. The reaction mixture was incubated at 25° C. for 3 hours and was stopped with the addition of 10 μl of an EDTA (Ethylenediaminetetraacetic acid)-containing detection buffer (Cisbio #62SDBRDF) supplemented with Europium cryptate-labeled anti-phospho-serine/threonine antibodies (Cisbio #62ST1PEJ) and XL665-labeled streptavidin (Cisbio #610SAXLG). The mixture was incubated for 16 hours at room temperature and peptide phosphorylation was measured by time-resolved fluorescence energy transfer (665 nm/620 nm) on an Envision plate reader (PerkinElmer).
Data in Table 1 were normalized based on positive (staurosporine) and negative (DMSO) controls. Least squares curve fittings were performed using a four-parameter variable slope nonlinear regression model. IC50 is defined as the concentration of compound required to inhibit 50% of maximum phosphorylation. IC50 values from multiple experiments were averaged by geometric mean and the standard deviation was calculated.
A general note: TR-FRET usually uses a lanthanide donor and a delayed reading to cut background.
On to `CC(C)n1cnc2cc(-c3ccc4c(c3)N([C@H]3C[C@@H](N5CCCCC5)C3)C(=O)C43CCN(C(=O)C4CC4)CC3)nc(Nc3ccncc3F)c21` [Example 143], for which the IC50 is 0.3 nM.
Take `CC(C)[C@@H](O)C(=O)N1CCC2(CC1)C(=O)N([C@H]1C[C@@H](N3CCC(C)(C)C3)C1)c1cc(-c3cc4ncn(C(C)C)c4c(Nc4ccncc4F)n3)ccc12` [Example 118]: the IC50 is 0.2 nM.
Same read-out and setting: the same measure for `CC(C)n1cnc2cc(-c3ccc4c(c3)N([C@H]3C[C@@H](N5C[C@H]6CC[C@H]6C5)C3)C(=O)C43CCN(C(=O)C(C)(C)CO)CC3)nc(Nc3ccncc3F)c21` [Example 112]: 0.08 nM.
Same read-out and setting: the same measure for `CC[C@H](O)C(=O)N1CCC2(CC1)C(=O)N([C@H]1C[C@@H](N3CCC(C)(C)C3)C1)c1cc(-c3cc4ncn(C(C)C)c4c(Nc4ccncc4F)n3)ccc12` [Example 116]: 0.4 nM; for `CC(C)n1cnc2cc(-c3ccc4c(c3)N([C@H]3C[C@@H](N5CCCCC5)C3)C(=O)C43CCN(C(=O)C4(C#N)CC4)CC3)nc(Nc3ccncc3F)c21` [Example 142]: 0.3 nM; for `CC(C)n1cnc2cc(-c3ccc4c(c3)N([C@H]3C[C@@H](N5CCCCC5)C3)C(=O)C43CCN(C(=O)C4(CO)CC4)CC3)nc(Nc3ccncc3F)c21` [Example 134]: 0.3 nM.
For `CC(C)n1cnc2cc(-c3ccc4c(c3)N([C@H]3C[C@@H](N5CCC(C)(C)C5)C3)C(=O)C43CCN(C(=O)c4cnnn4C)CC3)nc(Nc3ccncc3F)c21` [Example 161], the IC50 came out at 0.4 nM.
With `CC(C)n1cnc2cc(-c3ccc4c(c3)N([C@H]3C[C@@H](N5CC6CCC(C6)C5)C3)C(=O)C43CCN(C(=O)C4CCO4)CC3)nc(Nc3ccncc3F)c21` (stereo partly drawn) [Example 125], the IC50 was 0.04 nM.
On the same count and under the same terms, then `CC(C)n1cnc2cc(-c3ccc4c(c3)N([C@H]3C[C@@H](N5C6COCC5C6)C3)C(=O)C4(C)C)nc(Nc3ccncc3F)c21` [Example 190], with 2.1 nM.
On the same count and under the same terms, then `CC(C)n1cnc2cc(-c3ccc4c(c3)N([C@H]3C[C@@H](N5CCC(C)(C)C5)C3)C(=O)C43CCN(C(=O)C(C)(C)CO)CC3)nc(Nc3ccc(F)nc3F)c21` [Example 164], with 0.08 nM; and `CC(C)n1cnc2cc(-c3ccc4c(c3)N([C@H]3C[C@@H](N5CCCCC5)C3)C(=O)C43CCN(C(=O)[C@@H]4CCC[C@@H]4O)CC3)nc(Nc3ccncc3F)c21` [Example 109], with 0.3 nM; and `CC(C)n1cnc2cc(-c3ccc4c(c3)N([C@H]3C[C@@H](N5CCC(C)(C)C5)C3)C(=O)C43CCN(C(=O)C4(C)COC4)CC3)nc(Nc3ccc(F)nc3F)c21` [Example 165], with 0.06 nM.
Still for that read-out and setting: then `CC(C)n1cnc2cc(-c3ccc4c(c3)N([C@H]3C[C@@H](N5CC6CCC(C6)C5)C3)C(=O)C43CCN(C(=O)C4(C)COC4)CC3)nc(Nc3ccncc3F)c21` [Example 123], with 0.1 nM.

Still in this assay, the particulars now being: recombinant human HPK1 kinase domain 0.15 nM, 10 μM ATP, 1 μM STK S1 peptide; geometric mean of multiple experiments.
For `CC(C)n1cnc2cc(-c3ccc4c(c3)N([C@H]3C[C@@H](N5CC[C@](C)(F)C5)C3)C(=O)C43CCN(C4COC4)CC3)nc(Nc3ccncc3F)c21` [Example 86], the IC50 turned out to be 0.6 nM.
The same measure, in the same setting: then `CC(C)n1cnc2cc(-c3ccc4c(c3)N([C@H]3C[C@@H](N5CCCCC5)C3)C(=O)C4(C)O)nc(Nc3ccncc3F)c21` (stereo partly drawn) [Example 55, 6-(4-((3-fluoropyridin-4-yl)amino)-3-isopropyl-3H-imidazo[4,5-c]pyridin-6-yl)-3-hydroxy-3-methyl-1-((1s,3s)-3-(piperidin-1-yl)cyclobutyl)indolin-2-one], with 0.9 nM; and `CC[C@H](C)n1cnc2cc(-c3ccc4c(c3)N([C@H]3C[C@@H](N5CCC(C)(C)C5)C3)C(=O)C43CCN(C4COC4)CC3)nc(Nc3ccncc3F)c21` [Example 90], with 0.3 nM.
As to `CC(C)n1cnc2cc(-c3ccc4c(c3)N([C@H]3C[C@@H](N5CCCC6(CC6)C5)C3)C(=O)C43CCN(C(=O)C4(C)COC4)CC3)nc(Nc3ccncc3F)c21` [Example 35], the IC50 worked out at 0.2 nM.
For the molecule `CC(C)n1cnc2cc(-c3ccc4c(c3)N([C@H]3C[C@@H](N5CCCCC5)C3)C(=O)C43CCN(C(=O)C(C)(C)O)CC3)nc(Nc3ccncc3F)c21` [Example 3], the IC50 was determined as 0.6 nM.
On to `CC(C)n1cnc2cc(-c3ccc4c(c3)N([C@H]3C[C@@H](N5CCC(C)(C)C5)C3)C(=O)C43CCN(C(=O)[C@H]4CCO4)CC3)nc(Nc3ccncc3F)c21` (single isomer, unassigned) [Example 78B, 1-((1s,3s)-3-(3,3-dimethylpyrrolidin-1-yl)cyclobutyl)-6-(4-((3-fluoropyridin-4-yl)amino)-3-isopropyl-3H-imidazo[4,5-c]pyridin-6-yl)-1′-(oxetane-2-carbonyl)spiro[indoline-3,4′-piperidin]-2-one], for which the IC50 worked out at 0.3 nM.
`CC(C)n1cnc2cc(-c3ccc4c(c3)N([C@H]3C[C@@H](N5CCC(C)(C)C5)C3)C(=O)C43CCN(C(=O)[C@H]4CC[C@@H](C)O4)CC3)nc(Nc3ccncc3F)c21` [Example 20A, 1-((1s,3S)-3-(3,3-dimethylpyrrolidin-1-yl)cyclobutyl)-6-(4-((3-fluoropyridin-4-yl)amino)-3-isopropyl-3H-imidazo[4,5-c]pyridin-6-yl)-1′-((2R,5R)-5-methyltetrahydrofuran-2-carbonyl)spiro[indoline-3,4′-piperidin]-2-one]: the IC50 came to 0.1 nM.
With `CC(C)n1cnc2cc(-c3ccc4c(c3)N([C@H]3C[C@@H](N5CCCCC5)C3)C(=O)C43CCN(C4COC4)CC3)nc(Nc3cc(F)ncc3F)c21` [Example 92], the half-inhibitory concentration (IC50) is 1.9 nM.
As to `CC(C)n1cnc2cc(-c3ccc4c(c3)N([C@H]3C[C@@H](N5CC(C)(C)C[C@@H]5CO)C3)C(=O)C43CCN(C4COC4)CC3)nc(Nc3ccncc3F)c21` [Example 39], the IC50 was 0.6 nM.
`CC(=O)N1CCC2(CC1)C(=O)N([C@H]1C[C@@H](N3CCC[C@@H](C)C3)C1)c1cc(-c3cc4ncn(C(C)C)c4c(Nc4ccncc4F)n3)ccc12` [Example 32]: the IC50 worked out at 0.6 nM.
Regarding `CC(=O)N1CCC2(CC1)C(=O)N([C@H]1C[C@@H](N3CCCCC3)C1)c1cc(-c3cc4ncn(C(C)C)c4c(Nc4ncc(F)cc4F)n3)ccc12` [Example 69], the IC50 is 5.6 nM.
`CC(C)n1cnc2cc(-c3ccc4c(c3)N([C@H]3C[C@@H](N5CCC(C)(C)C5)C3)C(=O)C43CCN(C(=O)[C@H]4CCOC4)CC3)nc(Nc3ccncc3F)c21` [Example 16]: the IC50 came out at 0.3 nM.
As for `CC(C)n1cnc2cc(-c3ccc4c(c3)N([C@H]3C[C@@H](N5CCC(C)(C)C5)C3)C(=O)C43CCN(C(=O)C4CCCCO4)CC3)nc(Nc3ccncc3F)c21` (stereo partly drawn) [Example 24], the IC50 turned out to be 0.09 nM.
On the same count and under the same terms, then `CC(C)n1cnc2cc(-c3ccc4c(c3)N([C@H]3C[C@@H](N5CCCCC5)C3)C(=O)C43CCN(C(=O)C4(C)CCO4)CC3)nc(Nc3ccncc3F)c21` (stereo partly drawn) [Example 11], with 0.2 nM.
The same measure, in the same setting: then `CC(C)n1cnc2cc(-c3ccc4c(c3)N([C@H]3C[C@@H](N5CC[C@@H](C)C5)C3)C(=O)C43CCN(C4COC4)CC3)nc(Nc3ccncc3F)c21` [Example 44], with 1.1 nM.
On to `CC(C)n1cnc2cc(-c3ccc4c(c3)N([C@H]3C[C@@H](N5C[C@H]6CC[C@@H]5C6)C3)C(=O)C4(C)C)nc(Nc3ccncc3F)c21` [Example 66], for which the concentration for half-maximal inhibition (IC50) was found to be 0.7 nM.
As for `CC[C@H](C)n1cnc2cc(-c3ccc4c(c3)N([C@H]3C[C@@H](N5CCCCC5)C3)C(=O)C43CCN(C(C)=O)CC3)nc(Nc3ccncc3F)c21` [Example 72], the half-inhibitory concentration (IC50) amounted to 0.7 nM.
Same read-out and setting: the same measure for `CC(C)n1cnc2cc(-c3ccc4c(c3)N([C@H]3C[C@@H](N5CC6CC6C5)C3)C(=O)C4(C)C)nc(Nc3ccncc3F)c21` (stereo partly drawn) [Example 61]: 0.8 nM.
As to `CC(C)n1cnc2cc(-c3ccc4c(c3)N([C@H]3C[C@@H](N5C[C@@H](C)[C@@H](C)C5)C3)C(=O)C4(C)C)nc(Nc3ccncc3F)c21` [Example 57], the IC50 is 0.4 nM.
Consider `CC(C)n1cnc2cc(-c3ccc4c(c3)N([C@H]3C[C@@H](N5CC(O)C(C)(C)C5)C3)C(=O)C43CCN(C4COC4)CC3)nc(Nc3ccncc3F)c21` (stereo partly drawn) [Example 37, 6-(4-((3-fluoropyridin-4-yl)amino)-3-isopropyl-3H-imidazo[4,5-c]pyridin-6-yl)-1-((1s,3s)-3-(4-hydroxy-3,3-dimethylpyrrolidin-1-yl)cyclobutyl)-1′-(oxetan-3-yl)spiro[indoline-3,4′-piperidin]-2-one], for which the IC50 is 0.2 nM.
